In PubChem BioAssay AID1645863 (Buhrlage Lab, Dana-Farber Cancer Institute and Novartis …, 2021):
Active and inactive are the calls of the source. No rule for the calls is given here.

biological target: Ubiquitin carboxyl-terminal hydrolase 10 (Homo sapiens) (UniProt Q14694); assay: primary hit verification, biochemical, ubiquitin-specific protease 10 deubiquitylase inhibitors, concentration-effect titration (AID 1645863); details: USP10 deubiquitinase enzymatic assay;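 also: potency values describe inhibition of USP10 cleavage of a fluorogenic ubiquitin substrate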
Sequence (Q14694 whole entry, looked up): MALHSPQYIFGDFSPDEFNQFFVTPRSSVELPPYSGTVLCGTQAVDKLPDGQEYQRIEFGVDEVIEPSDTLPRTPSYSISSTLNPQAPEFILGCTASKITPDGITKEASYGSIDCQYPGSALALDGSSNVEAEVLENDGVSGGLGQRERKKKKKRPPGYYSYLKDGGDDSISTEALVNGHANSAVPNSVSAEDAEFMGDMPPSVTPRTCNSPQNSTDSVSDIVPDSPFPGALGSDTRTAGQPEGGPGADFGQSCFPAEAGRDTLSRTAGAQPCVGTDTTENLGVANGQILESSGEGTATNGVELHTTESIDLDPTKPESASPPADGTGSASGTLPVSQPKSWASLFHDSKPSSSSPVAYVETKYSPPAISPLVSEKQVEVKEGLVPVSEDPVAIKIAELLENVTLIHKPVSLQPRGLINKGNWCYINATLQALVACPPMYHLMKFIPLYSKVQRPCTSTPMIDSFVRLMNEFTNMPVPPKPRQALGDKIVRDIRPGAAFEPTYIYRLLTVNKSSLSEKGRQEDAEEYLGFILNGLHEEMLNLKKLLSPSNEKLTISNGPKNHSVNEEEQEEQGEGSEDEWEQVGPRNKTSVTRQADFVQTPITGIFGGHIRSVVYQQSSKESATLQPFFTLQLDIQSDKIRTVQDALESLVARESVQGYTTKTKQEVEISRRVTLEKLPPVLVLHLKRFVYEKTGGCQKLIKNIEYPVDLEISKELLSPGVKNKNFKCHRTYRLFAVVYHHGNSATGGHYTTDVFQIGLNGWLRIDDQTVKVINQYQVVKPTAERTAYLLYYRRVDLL

With `CC1CCc2c(sc(NC(=O)c3cccc(S(C)(=O)=O)c3)c2C(N)=O)C1` (stereo not given) as the molecule, how does the IC50 read?
Its IC50 is > 40 µM (inactive).

`COc1ccc(-c2ccc3cc(C(=O)O)ccc3c2)cc1C12CC3CC(CC(C3)C1)C2` was tested. Which IC50 did it give?
Its IC50 is 5.77 µM.

Which IC50 does the source give for `CCOC(=O)N1CCC(NC(=O)c2cc(C(=O)Nc3ccc(S(=O)(=O)N4CCCCC4)cc3)ccc2CO)CC1` here?
Its IC50 is > 40 µM (inactive).

With `CC(OC(=O)c1cc(S(=O)(=O)Nc2ccccc2F)ccc1Cl)C(=O)Nc1ccc([N+](=O)[O-])cc1C(F)(F)F` (stereo not given) as the molecule, how does the IC50 read?
The IC50 was 16 µM.

For `Cn1c(O)c(C2=Nc3ccccc3SC(c3cccc(O)c3)C2)c(=O)[nH]c1=O` (stereo not given), which IC50 is on record?
Its IC50 is > 40 µM (inactive).

With `CC(=O)N1CCc2cc(S(=O)(=O)NC(Cc3ccccc3)C(=O)Nc3cccc(Cl)c3C)ccc21` (stereo not given) as the molecule, how does the IC50 read?
Its IC50 is 23.8 µM.

With `COC(=O)c1ccc(C2c3[nH]c4ccccc4c3C[C@@H]3C(=O)N(c4ccc5c(c4)OCCO5)C(=O)N23)cc1` (stereo not given in full) as the molecule, how does the IC50 read?
The IC50 was > 40 µM (inactive).

Which IC50 does the source give for `NS(=O)(=O)c1cccc(NC(=O)/C=C/c2cn(-c3ccccc3)nc2-c2cccc([N+](=O)[O-])c2)c1` here?
Its IC50 is 27.4 µM.

With `C=C1C=C(CCC(=O)O)C(=O)OC1/C=C/C=C/C` (stereo not given) as the molecule, how does the IC50 read?
Its IC50 is 3.91 µM.

For `O=C(CSc1nnc2ccc3ccccc3n12)c1ccc(Cl)cc1`, which IC50 is on record?
Its IC50 is > 40 µM (inactive).

`COc1ccccc1Nc1ncc(C(=O)NCCc2ccc(Cl)cc2)c2ccccc12` was tested. Which IC50 did it give?
Its IC50 is > 40 µM (inactive).

With `O=C(CNC(=O)c1ccc2nc(-n3cccc3)sc2c1)NCc1ccccc1` as the molecule, how does the IC50 read?
Its IC50 is > 40 µM (inactive).

`O=C(Cc1ccc(-n2c(=O)c3ccccc3n(Cc3cccc(F)c3)c2=O)cc1)NC1CCCC1` was tested. Which IC50 did it give?
The IC50 was > 40 µM (inactive).

`COc1ccc(C2NC(=O)NC(C)=C2C(=O)OCC2CCCCC2)cc1OC` (stereo not given) was tested. Which IC50 did it give?
Its IC50 is > 40 µM (inactive).

`O=C(Nc1cccnc1)C1c2ccccc2C(=O)N(c2ccccc2)C12CCCCC2` (stereo not given) was tested. Which IC50 did it give?
The IC50 was > 40 µM (inactive).

`O=C(Oc1ccc2cc(Br)ccc2c1)c1ccncc1` was tested. Which IC50 did it give?
Its IC50 is > 40 µM (inactive).

How did the IC50 turn out when `Cc1cc(NC(=O)c2cc(-c3cccnc3)n[nH]2)ccc1Br` was run?
The IC50 was 28.6 µM.

With `Cc1ccc(-c2nc(NC(=O)COc3ccc(Cl)cc3)no2)cc1` as the molecule, how does the IC50 read?
The IC50 was 13.5 µM.

With `CCn1cc2c(n1)c(=O)n(Cc1ccccc1)c(=O)n2CC(=O)Nc1ccc(OC)cc1` as the molecule, how does the IC50 read?
Its IC50 is 35.9 µM.

Which IC50 does the source give for `Cc1ccc(-n2nc(C)c3c2NC(=O)CC3C(=O)c2cc3ccccc3o2)cc1C` (stereo not given) here?
Its IC50 is > 40 µM (inactive).

Which IC50 does the source give for `O=C(Cn1c(COc2ccccc2)nc2ccccc21)Nc1cc(Cl)ccc1Cl` here?
The IC50 was > 40 µM (inactive).

How did the IC50 turn out when `Cc1cc(C)c2nc3c(cc2c1)CN(Cc1ccco1)C(=O)O3` was run?
The IC50 was > 40 µM (inactive).

`CC(C)c1nnc(NC(=O)C2CC(=O)N(CCc3ccc(F)cc3)C2)s1` (stereo not given) was tested. Which IC50 did it give?
The IC50 was > 40 µM (inactive).

With `Cc1cccc(NC(=O)Nc2ccccc2OCc2cc(=O)n3cccc(C)c3n2)c1` as the molecule, how does the IC50 read?
The IC50 was 27.1 µM.

For `O=c1c2ccccc2oc2nc(-c3cccs3)n(-c3ccccc3)c(=O)c12`, which IC50 is on record?
Its IC50 is 16.6 µM.

With `O=C(NC(Cc1ccccc1)c1nc2ccccc2[nH]1)C1CC1` (stereo not given) as the molecule, how does the IC50 read?
The IC50 was > 40 µM (inactive).

`Cc1cc(NS(=O)(=O)c2ccc(NC(=O)c3ccc(N4CCCC4)c([N+](=O)[O-])c3)cc2)no1` was tested. Which IC50 did it give?
The IC50 was 34.8 µM.

Which IC50 does the source give for `CCc1ccc(OCCn2c(CCNC(=O)C3CCCCC3)nc3ccccc32)cc1` here?
Its IC50 is > 40 µM (inactive).

For `CC(C)(C)c1ccc(C2CC(=O)C3=C(C2)Nc2ccccc2N(C(=O)CCC(=O)O)C3c2cccc([N+](=O)[O-])c2)cc1` (stereo not given), which IC50 is on record?
Its IC50 is > 40 µM (inactive).

Which IC50 does the source give for `Cc1ccc2c(c1)N(C)C(=O)c1cc(NC(=O)c3ccc(F)cc3)ccc1O2` here?
Its IC50 is 12.8 µM.

Which IC50 does the source give for `O=C(Nc1cccc(Br)c1)c1cc(-c2cccnc2)n[nH]1` here?
The IC50 was 19.9 µM.

With `Cc1ccc(NC(=O)Cn2cncc(-c3nc(-c4ccccc4)cs3)c2=O)cc1F` as the molecule, how does the IC50 read?
The IC50 was 22.9 µM.

For `CCOc1ccccc1NC(=O)Cn1c(=O)n(CCC(=O)NCCc2ccc(OC)c(OC)c2)c(=O)c2ccccc21`, which IC50 is on record?
The IC50 was > 40 µM (inactive).

How did the IC50 turn out when `O=C(Nc1cc(S(=O)(=O)Nc2ccc(Cl)cc2)ccc1O)c1cc2c(s1)CCC2` was run?
The IC50 was 10.3 µM.

Which IC50 does the source give for `CCn1cc2c(n1)c(=O)n(Cc1ccccc1)c(=O)n2CC(=O)NCc1ccc(C)cc1` here?
Its IC50 is > 40 µM (inactive).

For `O=C(CCCn1c(=O)c2sccc2n(CC(=O)NCCC2=CCCCC2)c1=O)NCc1ccc2c(c1)OCO2`, which IC50 is on record?
The IC50 was 13.8 µM.

`Cc1ccc(C(=O)c2cn(CC(=O)Nc3ccc4c(c3)OCO4)c3ccccc3c2=O)cc1` was tested. Which IC50 did it give?
Its IC50 is 16.4 µM.

How did the IC50 turn out when `O=C(OC1CSc2nc3ccccc3n2C1)c1ccc([N+](=O)[O-])o1` (stereo not given) was run?
The IC50 was 22.7 µM.

How did the IC50 turn out when `CC(C)=CCCC1(C)C=Cc2c(O)c3c(c(CC=C(C)C)c2O1)OC12C(=CC4CC1C(C)(C)OC2(C/C=C(/C)C(=O)O)C4=O)C3=O` (stereo not given) was run?
Its IC50 is 9.59 µM.

`CCOc1ccc(-c2noc(-c3nn(-c4cccc(OC)c4)ccc3=O)n2)cc1` was tested. Which IC50 did it give?
Its IC50 is > 40 µM (inactive).

How did the IC50 turn out when `O=C(Cn1c(=O)c2cccn2c2ccccc21)NCc1ccc(F)cc1` was run?
Its IC50 is > 40 µM (inactive).

`Cc1ccc2c(c1)c(=O)c(C(=O)c1ccccc1)cn2CC(=O)Nc1ccc2c(c1)OCO2` was tested. Which IC50 did it give?
The IC50 was > 40 µM (inactive).

`CN1CC(c2ncn[nH]2)c2cc(C(=O)NCc3cccc(F)c3)ccc21` (stereo not given) was tested. Which IC50 did it give?
Its IC50 is > 40 µM (inactive).

How did the IC50 turn out when `O=C(Cc1ccc(-n2c(=O)c3ccccc3n(CC(=O)Nc3ccc(Cl)cc3Cl)c2=O)cc1)NCc1ccco1` was run?
The IC50 was 11.3 µM.

How did the IC50 turn out when `Cc1ccc(S(=O)(=O)Nc2ccccc2C(=O)Nc2nc3ccc(Br)cc3s2)cc1` was run?
Its IC50 is > 40 µM (inactive).

For `O=C1CSC(c2ccc3c(c2)OCO3)c2c(n(C3CCCCCC3)[nH]c2=O)N1` (stereo not given), which IC50 is on record?
Its IC50 is 36.8 µM.

`O=C(O)c1ccccc1C(=O)Nc1ccc(SC(C(=O)Nc2cccc(Cl)c2)c2ccccc2)cc1` (stereo not given) was tested. Which IC50 did it give?
Its IC50 is 14.2 µM.

Which IC50 does the source give for `Cc1ccc(NC(=O)CSc2ccc(NC(=O)c3ccc(C(=O)O)cc3C(=O)O)cc2)c(C)c1` here?
The IC50 was > 40 µM (inactive).

For `Cc1cc(C)c(NC(=O)Cc2sc(Nc3ccc(C)c(C)c3)nc2O)c(C)c1`, which IC50 is on record?
Its IC50 is > 40 µM (inactive).

How did the IC50 turn out when `Cc1noc(-c2ccnc(-n3cnc(C(=O)NCC4CC4)c3)c2)n1` was run?
Its IC50 is > 40 µM (inactive).

`O=C(Cn1cnc(-c2noc(-c3ccc(F)cc3)n2)c1)Nc1ccccc1F` was tested. Which IC50 did it give?
The IC50 was > 40 µM (inactive).

How did the IC50 turn out when `O=C(NCc1ccco1)c1ccc(Cn2c(=O)c3sccc3n(Cc3cc(=O)n4ccccc4n3)c2=O)cc1` was run?
Its IC50 is > 40 µM (inactive).

For `CCOc1cccc(-c2noc(-c3nn(-c4ccccc4)ccc3=O)n2)c1`, which IC50 is on record?
The IC50 was > 40 µM (inactive).

With `O=C(CCc1ccc(S(=O)(=O)N2CCOCC2)cc1)OCC(=O)c1ccc(-c2ccccc2)cc1` as the molecule, how does the IC50 read?
The IC50 was 38.8 µM.

`O=S1(=O)CCN(Cc2cccnc2)c2c(F)nc(N3CCOCC3)c(F)c21` was tested. Which IC50 did it give?
Its IC50 is > 40 µM (inactive).

For `O=C(c1cccnc1)N1CCN(c2cc(-c3ccccc3)[nH]n2)CC1`, which IC50 is on record?
The IC50 was > 40 µM (inactive).

`COc1ccc(NC(=O)Cn2c(=O)n(CCCC(=O)NCCc3ccc(OC)c(OC)c3)c(=O)c3ccccc32)cc1Cl` was tested. Which IC50 did it give?
Its IC50 is > 40 µM (inactive).

`CC(C)=CCc1c2c(c3occ(-c4ccc(O)c(O)c4)c(=O)c3c1O)C=CC(C)(C)O2` was tested. Which IC50 did it give?
The IC50 was 6.37 µM.

How did the IC50 turn out when `O=C1CC(c2cc3c(cc2Br)OCO3)c2cc3c(cc2N1)OCCO3` (stereo not given) was run?
Its IC50 is > 40 µM (inactive).

With `O=C(NC1CCCC1)c1ccc(Cn2c(=O)c3ccccc3n(Cc3cc(=O)n4ccccc4n3)c2=O)cc1` as the molecule, how does the IC50 read?
Its IC50 is > 40 µM (inactive).

Which IC50 does the source give for `O=C(Cn1c(=O)c2sccc2n(Cc2ccc([N+](=O)[O-])cc2)c1=O)NCCc1ccccc1` here?
Its IC50 is > 40 µM (inactive).

How did the IC50 turn out when `COc1ccc(OC)c(NC(=O)c2cc(Cl)ccc2OC)c1` was run?
Its IC50 is > 40 µM (inactive).

For `CCc1nnc(C(=O)Nc2ccc(C(=O)NCc3ccc(OC(C)C)cc3)cc2)s1`, which IC50 is on record?
The IC50 was > 40 µM (inactive).

How did the IC50 turn out when `Cc1noc(/C=C/Nc2cc(Cl)cc(Cl)c2)c1[N+](=O)[O-]` was run?
Its IC50 is > 40 µM (inactive).

Which IC50 does the source give for `O=C(Nc1cccc2ccccc12)N1CCC(c2nc3c(nnn3Cc3ccc(F)cc3)c(=O)[nH]2)CC1` here?
The IC50 was > 40 µM (inactive).
